Earlier results, collected in US11608532B2, “Precision medicine for treating and preventing suicidality” (Indiana University Research and Technology Corporation, priority 2017, dated 2023).
Where two headings read alike, the source gives them in different places.

Legend:
[1] = system: individual top biomarkers for suicidality; details: for TNF modulated by drug in opposite direction to suicide: direction of change in suicidality (I) DE/1, (I) AP/1
[2] = system: top male bipolar biomarkers for suicidality; details: for Drugs that Modulate the Biomarker in Opposite Direction to Suicide: (I) in suicidality, male bipolars
[3] = A. Top Universal Biomarkers, direction of change in suicidality (D), AP/1
[4] = biomarker HTR2A (5-hydroxytryptamine (serotonin) receptor 2A, G protein-coupled)
[5] = A. Top Universal Biomarkers, direction of change in suicidality (I), DE/2
[6] = C. Top Biomarkers in Females, direction of change in suicidality I, DE/2
[7] = D. Top Biomarkers in Bipolar Disorder, direction of change in suicidality (I), DE/2
[8] = F. Top Biomarkers in Males with Bipolar Disorder, direction of change in suicidality (I), DE/2
[9] = E. Top Biomarkers in Depression, direction of change in suicidality (I), DE/1
[10] = G. Top Biomarkers in Males with Depression, direction of change in suicidality (D), AP/2
[11] = D. Top Biomarkers in Bipolar Disorder
[12] = biomarker BCL2 (B-cell CLL/lymphoma 2)
[13] = B. Top Biomarkers in Males, direction of change in suicidality I, DE/2
[14] = D. Top Biomarkers in Bipolar Disorder, direction of change in suicidality (D), DE/1

Compound: OCCOCCN1CCN(C2=Nc3ccccc3Sc3ccccc32)CC1 [Quetiapine]
- IFNG modulated by drug in opposite direction to suicide [1, 3]: Quetiapine,
- Step 6 Drugs that Modulate the Biomarker in Opposite Direction to Suicide [1, 4]: Quetiapine

Compound: OCCN1CCN(CCCN2c3ccccc3C=Cc3ccccc32)CC1 [opipramol]
- HTR2A modulated by drug in opposite direction to suicide [1, 5]: opipramol,
- HTR2A modulated by drug in opposite direction to suicide [1, 6]: opipramol,
- HTR2A modulated by drug in opposite direction to suicide [1, 7]: opipramol,
- HTR2A modulated by drug in opposite direction to suicide [1, 8]: opipramol,

Compound: CNCCC(Oc1ccc(C(F)(F)F)cc1)c1ccccc1 (centres unmarked) [Fluoxetine]
- BDNF modulated by drug in opposite direction to suicide [1, 6]: Fluoxetine
- ACP1 modulated by drug in opposite direction to suicide ([1]; E. Top Biomarkers in Depression, direction of change in suicidality (D), AP/1): Fluoxetine
- BDNF modulated by drug in opposite direction to suicide [1, 9]: Fluoxetine
- JUN modulated by drug in opposite direction to suicide [1, 9]: Fluoxetine
- NTRK3 modulated by drug in opposite direction to suicide [1, 10]: Fluoxetine

Compound: CN[C@@H](C)Cc1ccccc1 [Methamphetamine]
- Drugs that Modulate the Biomarker in Opposite Direction to Suicide ([2]; CRYAB, 209283_at): Methamphetamine

Compound: Recombinant-methionyl human leptin
- Step 6 Drugs that Modulate the Biomarker in Opposite Direction to Suicide ([1]; biomarker LEPR (leptin receptor)): Recombinant-

Compound: CN(C)CCC=C1c2ccccc2CCc2ccccc21 [amitriptyline]
- Drugs that Modulate the Biomarker in Opposite Direction to Suicide ([2]; HTR2A, 244130_at): amitriptyline

Compound: OCCOCCN1CCN(C2=Nc3ccccc3Sc3ccccc32)CC1 [quetiapine]
- Drugs that Modulate the Biomarker in Opposite Direction to Suicide ([2]; HTR2A, 244130_at): quetiapine

Compound: CN1CCN2c3ncccc3Cc3ccccc3C2C1 (centres unmarked) [Mirtazapine]
- Step 6 Drugs that Modulate the Biomarker in Opposite Direction to Suicide [1, 4]: Mirtazapine

Compound: CN1C[C@H](C(=O)N[C@]2(C)O[C@@]3(O)[C@@H]4CCCN4C(=O)[C@H](Cc4ccccc4)N3C2=O)C[C@@H]2c3cccc4[nH]cc(c34)C[C@H]21 [dihydroergotamine]
- Drugs that Modulate the Biomarker in Opposite Direction to Suicide ([2]; HTR2A, 244130_at): dihydroergotamine

Compound: Cc1nc2n(c(=O)c1CCN1CCC(c3noc4cc(F)ccc34)CC1)CCCC2 [Risperidone]
- Drugs that Modulate the Biomarker in Opposite Direction to Suicide ([2]; HTR2A, 244130_at): Risperidone
- IFNG modulated by drug in opposite direction to suicide [1, 3]: Risperidone,
- Step 6 Drugs that Modulate the Biomarker in Opposite Direction to Suicide [1, 4]: Risperidone

Compound: COc1ccc(C(CN(C)C)C2(O)CCCCC2)cc1 (centres unmarked) [Venlafaxine]
- TNF modulated by drug in opposite direction to suicide [1, 11]: Venlafaxine

Compound: CN(C)C(=O)N[C@H]1CC[C@H](CCN2CCN(c3cccc(Cl)c3Cl)CC2)CC1 [cariprazine]
- HTR2A modulated by drug in opposite direction to suicide [1, 5]: cariprazine,
- HTR2A modulated by drug in opposite direction to suicide [1, 6]: cariprazine,
- HTR2A modulated by drug in opposite direction to suicide [1, 7]: cariprazine,
- HTR2A modulated by drug in opposite direction to suicide [1, 8]: cariprazine,

Compound: O=C1CCc2ccc(OCCCCN3CCN(c4cccc(Cl)c4Cl)CC3)cc2N1 [aripiprazole]
- Drugs that Modulate the Biomarker in Opposite Direction to Suicide ([2]; HTR2A, 244130_at): aripiprazole

Compound: Tocilizumab
- Step 6 Drugs that Modulate the Biomarker in Opposite Direction to Suicide ([1]; biomarker IL6 (interleukin 6)): Tocilizumab

Compound: CSc1ccc2c(c1)N(CCC1CCCCN1C)c1ccccc1S2 (centres unmarked) [thioridazine]
- Drugs that Modulate the Biomarker in Opposite Direction to Suicide ([2]; HTR2A, 244130_at): thioridazine

Compound: CC(=O)O[C@H]1C(=O)[C@@]2(C)[C@H]([C@H](OC(=O)c3ccccc3)[C@]3(O)C[C@H](OC(=O)[C@H](O)[C@@H](NC(=O)c4ccccc4)c4ccccc4)C(C)=C1C3(C)C)[C@]1(OC(C)=O)CO[C@@H]1C[C@@H]2O [Paclitaxel]
- Step 6 Drugs that Modulate the Biomarker in Opposite Direction to Suicide [1, 12]: Paclitaxel

Compound: CCN(CC)C(=O)N[C@H]1C=C2c3cccc4[nH]cc(c34)C[C@H]2N(C)C1 [lisuride]
- Drugs that Modulate the Biomarker in Opposite Direction to Suicide ([2]; HTR2A, 244130_at): lisuride

Compound: O=C1CCC(N2C(=O)c3ccccc3C2=O)C(=O)N1 (centres unmarked) [thalidomide]
- TNF modulated by drug in opposite direction to suicide [1, 11]: thalidomide

Compound: Fc1ccc([C@@H]2CCNC[C@H]2COc2ccc3c(c2)OCO3)cc1 [Paroxetine]
- CCL28 modulated by drug in opposite direction to suicide ([1]; A. Top Universal Biomarkers, direction of change in suicidality (D), AP/4): Paroxetine

Compound: CCc1nn(CCCN2CCN(c3cccc(Cl)c3)CC2)c(=O)n1CCOc1ccccc1 [nefazodone]
- Drugs that Modulate the Biomarker in Opposite Direction to Suicide ([2]; HTR2A, 244130_at): nefazodone

Compound: C/C=C(/C)C(=O)O[C@H]1C(C)=C[C@]23C(=O)[C@@H](C=C(CO)[C@@H](O)[C@]12O)[C@H]1[C@@H](C[C@H]3C)C1(C)C [Ingenol mebutate]
- Drugs that modulate the biomarker PRKCB ([1]; biomarker PRKCB (protein kinase C, beta), Table 20 CFE drug-evidence): Ingenol mebutate
- Step 6 Drugs that Modulate the Biomarker in Opposite Direction to Suicide ([1]; biomarker PRKCI (protein kinase C, iota)): Ingenol

Compound: COc1cc(C(C)=O)ccc1OCCCN1CCC(c2noc3cc(F)ccc23)CC1 [Iloperidone]
- HTR2A modulated by drug in opposite direction to suicide [1, 5]: Iloperidone,
- HTR2A modulated by drug in opposite direction to suicide [1, 6]: Iloperidone,
- HTR2A modulated by drug in opposite direction to suicide [1, 7]: Iloperidone,
- HTR2A modulated by drug in opposite direction to suicide [1, 8]: Iloperidone,

Compound: O=C1Cc2cc(CCN3CCN(c4nsc5ccccc45)CC3)c(Cl)cc2N1 [ziprasidone]
- Drugs that Modulate the Biomarker in Opposite Direction to Suicide ([2]; HTR2A, 244130_at): ziprasidone

Compound: Oblimersen
- Step 6 Drugs that Modulate the Biomarker in Opposite Direction to Suicide [1, 12]: Oblimersen

Compound: O=C(CCCN1CCC(O)(c2ccc(Cl)cc2)CC1)c1ccc(F)cc1 [haloperidol, reference compound]
- BDNF modulated by drug in opposite direction to suicide [1, 6]: Haloperidol
- BDNF modulated by drug in opposite direction to suicide [1, 9]: Haloperidol
- Drugs that modulate the biomarker AGA ([1]; biomarker AGA (aspartyl glucosaminidase), Table 20 CFE drug-evidence): Haloperidol
- Step 6 Drugs that Modulate the Biomarker in Opposite Direction to Suicide ([1]; biomarker AGA (aspartylglucosaminidase)): Haloperidol
- Step 6 Drugs that Modulate the Biomarker in Opposite Direction to Suicide ([1]; biomarker AKAP13 (A kinase (PRKA) anchor protein 13)): Haloperidol
- Drugs that modulate the biomarker RIMS3 ([1]; biomarker RIMS3 (regulating synaptic membrane exocytosis 3), Table 20 CFE drug-evidence): Haloperidol

Compound: O=C1NCCN1CCN1CCC(c2cn(-c3ccc(F)cc3)c3ccc(Cl)cc23)CC1 [sertindole]
- Drugs that Modulate the Biomarker in Opposite Direction to Suicide ([2]; HTR2A, 244130_at): sertindole

Compound: CN1CC2c3ccccc3Oc3ccc(Cl)cc3C2C1 (centres unmarked) [asenapine]
- HTR2A modulated by drug in opposite direction to suicide [1, 5]: asenapine,
- HTR2A modulated by drug in opposite direction to suicide [1, 6]: asenapine,
- HTR2A modulated by drug in opposite direction to suicide [1, 7]: asenapine,
- HTR2A modulated by drug in opposite direction to suicide [1, 8]: asenapine,

Compound: C[C@H]1Oc2c(cccc2N2CCN(CCCc3c[nH]c4ccc(F)cc34)CC2)NC1=O [SLV-314]
- SLC6A4 modulated by drug in opposite direction to suicide [1, 13]: SLV-314
- SLC6A4 modulated by drug in opposite direction to suicide [1, 14]: SLV-314

Compound: O=C1CCc2ccc(OCCCCN3CCN(c4cccc(Cl)c4Cl)CC3)cc2N1 [Aripiprazole]
- IFNG modulated by drug in opposite direction to suicide [1, 3]: Aripiprazole
- Step 6 Drugs that Modulate the Biomarker in Opposite Direction to Suicide [1, 4]: Aripiprazole

Compound: Cc1ccc(C23CNCC2C3)cc1 (centres unmarked) [bicifadine]
- SLC6A4 modulated by drug in opposite direction to suicide [1, 13]: bicifadine,
- SLC6A4 modulated by drug in opposite direction to suicide [1, 14]: bicifadine,

Compound: CC#C[C@]1(O)CC[C@H]2[C@@H]3CCC4=CC(=O)CCC4=C3[C@@H](c3ccc(N(C)C)cc3)C[C@@]21C [Mifepristone]
- BDNF modulated by drug in opposite direction to suicide [1, 6]: Mifepristone
- BDNF modulated by drug in opposite direction to suicide [1, 9]: Mifepristone

Compound: CNCCCN1c2ccccc2CCc2ccccc21 [desipramine]
- Drugs that Modulate the Biomarker in Opposite Direction to Suicide ([2]; HTR2A, 244130_at): desipramine

Compound: CC[C@@H](CO)NC(=O)[C@@H]1C=C2c3cccc4c3c(cn4C)C[C@H]2N(C)C1 [methysergide]
- Drugs that Modulate the Biomarker in Opposite Direction to Suicide ([2]; HTR2A, 244130_at): methysergide

Compound: CN1CCN(c2ccc(C(=O)Nc3n[nH]c4ccc(Cc5cc(F)cc(F)c5)cc34)c(NC3CCOCC3)c2)CC1 [entrectinib]
- NTRK3 modulated by drug in opposite direction to suicide [1, 6]: entrectinib,
- NTRK3 modulated by drug in opposite direction to suicide ([1]; E. Top Biomarkers in Depression, direction of change in suicidality (I) AP/2, (I) DE/1): entrectinib,
- NTRK3 modulated by drug in opposite direction to suicide [1, 10]: entrectinib,

Compound: etanercept
- TNF modulated by drug in opposite direction to suicide [1, 11]: , etanercept,

Compound: CCc1nn(CCCN2CCN(c3cccc(Cl)c3)CC2)c(=O)n1CCOc1ccccc1 [Nefazodone]
- Step 6 Drugs that Modulate the Biomarker in Opposite Direction to Suicide [1, 4]: Nefazodone

Compound: tocilizumab
- IL6 modulated by drug in opposite direction to suicide ([1]; B. Top Biomarkers in Males, direction of change in suicidality I, AP/2): tocilizumab,

Compound: CN1CCc2cccc3c2[C@H]1Cc1ccc(O)c(O)c1-3 [apomorphine]
- Drugs that Modulate the Biomarker in Opposite Direction to Suicide ([2]; HTR2A, 244130_at): apomorphine

Compound: CCO [Alcohol]
- Drugs that Modulate the Biomarker in Opposite Direction to Suicide (direction of change by drug) [2]: (D) and (I)

Compound: golimumab
- TNF modulated by drug in opposite direction to suicide [1, 11]: golimumab,

Compound: CN1CCC(=C2c3ccccc3CCc3cccnc32)CC1 [azatadine]
- Drugs that Modulate the Biomarker in Opposite Direction to Suicide ([2]; HTR2A, 244130_at): azatadine

Compound: infliximab
- TNF modulated by drug in opposite direction to suicide [1, 11]: infliximab,

Compound: CN(C)CCC=C1c2ccccc2COc2ccccc21 [doxepin]
- Drugs that Modulate the Biomarker in Opposite Direction to Suicide ([2]; HTR2A, 244130_at): doxepin

Compound: CN(C)CCCN1c2ccccc2CCc2ccc(Cl)cc21 [clomipramine]
- Drugs that Modulate the Biomarker in Opposite Direction to Suicide ([2]; HTR2A, 244130_at): clomipramine

Compound: CN1CCN(CCCN2c3ccccc3Sc3ccc(S(=O)(=O)N(C)C)cc32)CC1 [thioproperazine]
- HTR2A modulated by drug in opposite direction to suicide [1, 5]: thioproperazine,
- HTR2A modulated by drug in opposite direction to suicide [1, 6]: thioproperazine,
- HTR2A modulated by drug in opposite direction to suicide [1, 7]: thioproperazine,
- HTR2A modulated by drug in opposite direction to suicide [1, 8]: thioproperazine,

Compound: CN1C[C@H](C(=O)N[C@]2(C)O[C@@]3(O)[C@@H]4CCCN4C(=O)[C@H](Cc4ccccc4)N3C2=O)C=C2c3cccc4[nH]cc(c34)C[C@H]21 [ergotamine]
- Drugs that Modulate the Biomarker in Opposite Direction to Suicide ([2]; HTR2A, 244130_at): ergotamine

Compound: CN[C@H]1CC[C@@H](c2ccc(Cl)c(Cl)c2)c2ccccc21 [Sertraline]
- TNF modulated by drug in opposite direction to suicide [1, 11]: Sertraline

Compound: CN1CCCCC1CCN1c2ccccc2Sc2ccc([S+](C)[O-])cc21 (centres unmarked) [mesoridazine]
- Drugs that Modulate the Biomarker in Opposite Direction to Suicide ([2]; HTR2A, 244130_at): mesoridazine

Compound: O=C1Cc2cc(CCN3CCN(c4nsc5ccccc45)CC3)c(Cl)cc2N1 [Ziprasidone]
- Step 6 Drugs that Modulate the Biomarker in Opposite Direction to Suicide [1, 4]: Ziprasidone
